Here are results for one compound from BindingDB's records for doi:10.1021/jm950699x (Rhône-Poulenc Rorer, 1996).

This assay has as its target Leukotriene B4 receptor (Cavia porcellus). Description: Compound was evaluated for Leukotriene B4 receptor binding, obtained from radioligand binding assay using guinea pig spleen cell membrane.

Some results are limits rather than exact numbers.

The compound `CCOC(=O)/C=C/c1cn(CC(=O)N(C)CCc2ccccc2)c2ccc(OCc3ccccc3)cc12` [(E)-3-{5-Benzyloxy-1-[(methyl-phenethyl-carbamoyl)-methyl]-1H-indol-3-yl}-acrylic acid ethyl ester] returned an IC50 above 300 nM.

Broadly, the IC50 is the concentration at which inhibition is half-maximal. Low values mean higher potency, high ones lower potency.
